{
  "source": "patent US20240197700A1",
  "about": "“Methods and Compositions for Treating Lysosomal Storage Disorders” (Sanford Health, priority 2021, published 2024)",
  "tested_on": "Cln3^Δex7/8 mice",
  "experiment": "Microglial activation (CD68) in brain of Cln3^Δex7/8 mice",
  "format": "in vivo, mouse",
  "details": "for microglial activation (CD68): VPM/VPL of the thalamus and somatosensory cortex",
  "procedure": "FIG. 22(A-B). Short-term chronic treatment with semaglutide impacts glial activation in Cln3^Δex7/8 mice. Beginning at wean, wild type and Cln3^Δex7/8 mice were treated with vehicle or semaglutide 2.571 μg/mouse, 25.71 μg/mouse) through subcutaneous injections three times a week until sacrifice at 16 weeks. Upon sacrifice, a hemisphere of the brain was sectioned at 50 microns on a vibratome; DAB staining immunohistochemistry was then performed using anti-GFAP (Dako, Z0334; 1:5000), anti-CD68 (AbD Serotec, MCA1957; 1:2000), anti-rabbit biotinylated (Vector Labs, BA-1000 1:1000), and anti-rat (Vector Labs, BA-9400 1:1000). Sections were imaged and analyzed using an Aperio Digital Pathology Slide Scanner (AT2) and associated software. Images were extracted from S1BF of the somatosensory cortex, the CA3 of the hippocampus, and the VPM/VPL of the thalamus, key brain regions for Batten disease pathology. Percent area of immunoreactivity were quantified using a threshold analysis in ImageJ™. Statistical analyses were performed using GraphPad Prism™ (v8.4.3; San Diego, CA). […] Increasing concentrations of semaglutide and corresponding genotypes are shown along the x-axis. Nested one-way ANOVA. Mean±S.E.M. Sidak's multiple comparisons test. Compared to the wild type vehicle treated group #p<0.05, ##p<0.01, ###p<0.001, ####p<0.0001. Compared to mutant vehicle treated group *p<0.05, **p<0.01, ***p<0.001, ****p<0.0001.\nSpecific experimental details are included in figure legends. In general, after collection and preparation, MEFs and PNCs were dosed with vehicle or AF38469 (40 nM, 400 nM. or 4 μM) on DIV3 and DIV5. On DIV7, cells were treated with the following dyes: Hoechst 33342 (1:1000 dilution), LysoTrackerT™ Red DND-99 (1:10,000 dilution), fixed, and imaged. Mice were given vehicle or AF38469 (78.125 μg/ml, 3.125 μg/ml, 0.3125 μg/ml or 0.03125 μg/ml equating approximately to 250 μg/mouse/day, 10 μg/mouse/day, 1 μg/mouse/day, and […], respectively, given a mouse's daily water intake of approximately 3.2 ml per day) in drinking water beginning at wean. Body weight was measured bi-weekly, and a force actimeter test was performed on Cln2^R207X mice at 10 weeks of age. Body weight was measured every month for Cln3^Δex7/8 mice. At 11 and 16 weeks of age, respectively, Cln2^R207X and Cln3^Δex7/8 mice along with age matched wild type control mice were CO2 euthanized and intracardially perfused with PBS. Brains were collected and placed on a 1 mm sagittal brain block. Brains were sliced at the midline and 3 mm right of the midline. One hemisphere was fixed in 4% PFA and sectioned at 50 microns on a vibratome. Immunohistochemistry was performed on free-floating sections. For mitochondrial ATP synthase subunit C (SubC), glial fibrillary acidic protein (GFAP), and cluster of differentiation 68 (CD68) immunolabeling, primary antibodies included anti-SubC (Abcam, ab181243; 1:1000), anti-GFAP (Dako, Z0334; 1:5000), anti-CD68 (AbD Serotec, MCA1957; 1:2000), and secondary antibodies included anti-rabbit biotinylated (Vector Labs, BA-1000 1:1000) and anti-rat (Vector Labs, BA-9400 1:1000). Coverslips were mounted on slides using antifade-mounting media and were stored in the dark before imaging. Sections were imaged and analyzed using an Aperio Digital Pathology Slide Scanner (AT2) and associated software. Images were extracted from S1BF of the somatosensory cortex and the VPM/VPL of the thalamus, with multiple images taken of multiple tissues from each animal.\nShort-term chronic treatment with AF38469 impacts glial activation in Cln3^Δex7/8 mice. Beginning at wean, wild type and Cln3^Δex7/8 mice were treated with vehicle (0.2408% DMSO) or AF38469 (0.03125 μg/ml, 0.3125 μg/ml, 3.125 μg/ml, 78.125 μg/ml) continuously through the drinking water continuing until sacrifice at 16 weeks. […]",
  "note": "Entries after “also recorded” stand apart in the source; their conditions may differ.",
  "data": [
    {"compound": "CC[C@H](C)[C@H](N)C(=O)NCCN1CCOCC1", "note": "[LM11A-31, N-[2-(morpholin-4-yl)ethyl]-L-isoleucinamide]", "values": [
      {"measurement": "microglial activation (CD68)", "setting": "LM11A-31 0.6 mg/mL", "result": "had no impact"},
      {"measurement": "levels of CD68", "setting": "LM11A-31 0.6 mg/mL, thalamus", "result": "trends towards decreased levels"}
    ]},
    {"compound": "Cc1cccc(NC(=O)c2ccc(C(F)(F)F)cc2C(=O)O)n1", "note": "[AF38469, 2-((6-methylpyridin-2-yl)carbamoyl)-5-(trifluoromethyl)benzoic acid]", "values": [
      {"measurement": "microglial activation (CD68)", "setting": "AF38469 higher doses 3.125 μg/ml, 78.125 μg/ml", "result": "increased or had no impact; also recorded: had no impact"},
      {"measurement": "microglial activation (CD68)", "setting": "AF38469 lower doses 0.03125 μg/ml, 0.3125 μg/ml", "result": "significantly and potently decreased"}
    ]},
    {"compound": "semaglutide", "values": [
      {"measurement": "accumulation of microgliosis (CD68)", "setting": "semaglutide 2.571 μg/mouse, 25.71 μg/mouse s.c., S1BF, CA3, VPM/VPL, vs vehicle Cln3^Δex7/8", "result": "had no significant effect"},
      {"measurement": "CD68 immunoreactivity", "setting": "semaglutide lower dose 2.571 μg/mouse s.c., S1BF, CA3, VPM/VPL, relative to wild type", "result": "reduced CD68 immunoreactivity to levels indistinguishable from wild type; also recorded: restored CD68 immunoreactivity to wild type levels"}
    ]}
  ]
}
